Data: US12522623B2, “Small molecule STAT protein degraders” (THE REGENTS OF THE UNIVERSITY OF MICHIGAN, priority 2020, dated 2026)

Columns and labels:
Assay type in all cases: cell-based
STAT1 = target: T1, STAT1 (Homo sapiens, UniProt P42224); assay: Fluorescent immunoblotting of STAT1 protein in MOLM-16 cells (estimated DC50); details: MOLM-16, 4 h
T1 construct: endogenous in cells; host or cells: MOLM-16 (acute leukemia cells)
T1 sequence (P42224 1-750): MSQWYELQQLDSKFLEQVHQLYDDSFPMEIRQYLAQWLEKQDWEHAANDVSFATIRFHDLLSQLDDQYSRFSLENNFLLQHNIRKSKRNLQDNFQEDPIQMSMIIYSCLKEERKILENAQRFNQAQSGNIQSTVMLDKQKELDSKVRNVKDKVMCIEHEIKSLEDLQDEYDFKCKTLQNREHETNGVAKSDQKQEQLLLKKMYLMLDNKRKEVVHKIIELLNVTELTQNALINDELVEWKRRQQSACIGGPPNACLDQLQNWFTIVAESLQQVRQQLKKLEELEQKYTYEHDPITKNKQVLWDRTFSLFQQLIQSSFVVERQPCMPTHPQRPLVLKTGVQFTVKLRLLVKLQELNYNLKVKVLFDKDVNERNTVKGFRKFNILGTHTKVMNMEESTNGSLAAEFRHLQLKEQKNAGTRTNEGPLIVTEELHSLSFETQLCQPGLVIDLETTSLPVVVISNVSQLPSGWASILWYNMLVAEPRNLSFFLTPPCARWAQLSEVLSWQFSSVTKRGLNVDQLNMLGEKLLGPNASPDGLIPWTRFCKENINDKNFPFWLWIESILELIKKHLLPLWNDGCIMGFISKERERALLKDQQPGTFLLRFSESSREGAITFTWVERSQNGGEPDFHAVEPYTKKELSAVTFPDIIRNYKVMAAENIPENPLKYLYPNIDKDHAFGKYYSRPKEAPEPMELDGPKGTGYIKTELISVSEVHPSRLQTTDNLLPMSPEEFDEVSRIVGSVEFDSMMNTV
Procedure: (§1) In vitro cultured cells or xenograft tumors were lysed 1×Cell Lysis Buffer (Cell Signaling Technology, #9803), resolved by SDS-PAGE NuPAGE gel (Thermo Fisher Scientific), and transferred to a PVDF membrane (Bio Rad). For chemiluminescence immunoblotting, membranes were blocked for 1 h using 5% Blotting-Grade Blocker (#1706404, Bio Rad) in 1×Tris-buffered saline with Tween 20 (TBST, Pierce). Antibodies used were: rabbit mAbs for STAT3 (Cell Signaling Technology, #4368, #12640) and p-STAT3 (Y705) (Cell Signaling Technology, #9245, #52075). HRP conjugated goat anti-rabbit IgG (H+L) (#A27036) secondary antibodies was from Thermo Fisher Scientific. GAPDH (Santa Cruz Technology, sc-47724HRP) and actin (Santa Cruz Technology, sc-8432HRP, sc-47778HRP) were loading controls. For fluorescent immunoblotting, membranes were blocked using Odyssey TBS Blocker Buffer (LI-COR). IRDye 680RD and 800CW Dye-labeled secondary antibodies (LI-COR) were used. The washed membranes were scanned using Odyssey CLx imager (LI-COR). The intensity of Western blot signaling was quantitated using the Odyssey software or Image Studio V5.2 (LI-COR).

STAT3 = target: T2, STAT3 (Homo sapiens, UniProt P40763); assay: Fluorescent immunoblotting of STAT3 protein in MOLM-16 cells (estimated DC50); details: MOLM-16, 4 h
T2 construct: endogenous in cells; host or cells: MOLM-16 (acute leukemia cells)
Procedure: as §1

MOLM-16 cells = assay: Cell growth inhibition, 4-day proliferation assay (CellTiter-Glo); details: MOLM16, 96 h; MOLM-16, 4 days
Procedure: The effect of representative Compounds of the Disclosure on cell viability was determined in a 4-day proliferation assay. Cells were maintained in the appropriate culture medium at 37° C. and an atmosphere of 5% CO2. All the cell lines were used within three months of thawing fresh vials. Cells were seeded in 384-well white plates (Corning Costar) at a density of 2,000 cells/well in 25 μl of culture medium. Compounds were serially diluted in the appropriate medium, and 25 μl of the diluted compounds were added to the cells. After the addition of compounds, the cells were incubated at 37° C. in an atmosphere of 5% CO2 for 4 days. Cell viability was determined using the CellTiter-Glo® Luminescent Cell Viability Assay Kit (Promega, Madison, WI) according to the manufacturers' instructions. Essentially, 50 μl of CellTiter-Glo® Reagent was added to each well, and then the plates were incubated at room temperature for 20 minutes. The luminescent signal was measured using a Tecan multimode microplate reader (Tecan, Morrisville, NC). The readings were normalized to the DMSO-treated cells and the IC50 was calculated by nonlinear regression (four parameters sigmoid fitted with variable slope, least squares fit, and no constraint) analysis using the GraphPad Prism software.

T2 sequence (P40763 whole entry): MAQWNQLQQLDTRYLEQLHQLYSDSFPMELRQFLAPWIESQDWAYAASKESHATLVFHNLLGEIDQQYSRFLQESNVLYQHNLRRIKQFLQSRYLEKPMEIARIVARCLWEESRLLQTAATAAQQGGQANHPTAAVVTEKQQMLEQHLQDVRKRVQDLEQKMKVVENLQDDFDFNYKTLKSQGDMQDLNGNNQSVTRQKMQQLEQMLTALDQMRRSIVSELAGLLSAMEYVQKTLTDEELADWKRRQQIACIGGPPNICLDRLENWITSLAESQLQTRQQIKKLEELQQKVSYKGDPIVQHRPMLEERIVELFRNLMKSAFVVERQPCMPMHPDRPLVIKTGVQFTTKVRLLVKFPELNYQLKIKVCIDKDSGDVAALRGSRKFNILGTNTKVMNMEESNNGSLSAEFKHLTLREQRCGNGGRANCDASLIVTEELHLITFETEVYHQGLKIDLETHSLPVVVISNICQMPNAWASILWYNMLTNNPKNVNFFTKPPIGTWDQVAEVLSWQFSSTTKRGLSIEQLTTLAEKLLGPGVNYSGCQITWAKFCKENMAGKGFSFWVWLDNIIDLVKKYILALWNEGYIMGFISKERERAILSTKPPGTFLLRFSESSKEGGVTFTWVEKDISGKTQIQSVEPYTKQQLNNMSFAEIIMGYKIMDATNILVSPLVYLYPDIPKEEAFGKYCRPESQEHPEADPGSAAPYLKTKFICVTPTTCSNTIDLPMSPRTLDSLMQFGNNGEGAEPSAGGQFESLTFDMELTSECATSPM

Q: What does the source list for `CCN1CC[C@H]2CC[C@@H](C(=O)N[C@@H](CCS(C)(=O)=O)C(=O)N[C@@H](Cc3ccc(C(C)(C)C)cc3)C(=O)N3CCC(CCC#Cc4cccc5c4CN(C4CCC(=O)NC4=O)C5=O)CC3)N2C(=O)[C@@H](NC(=O)c2cc3cc(C(F)(F)P(=O)(O)O)ccc3s2)C1` (stereo partly drawn) [Cpd. No. 18, ((2-(((5S,8S,10aR)-8-(((2S)-1-(((2S)-3-(4-(tert-butyl)phenyl)-1-(4-(4-(2-(2,6-dioxopiperidin-3-yl)-1-oxoisoindolin-4-yl)but-3-yn-1-yl)piperidin-1-yl)-1-oxopropan-2-yl)amino)-4-(methylsulfonyl)-1-oxobutan-2-yl)carbamoyl)-3-ethyl-6-oxodecahydropyrrolo[1,2-a][1,5]diazocin-5-yl)carbamoyl)benzo[b]thiophen-5-yl)difluoromethyl)phosphonic acid]?
A: DC50 (STAT1): > 1000 nM; DC50 (STAT3): < 250 nM

Q: Which IC50 (MOLM-16 cells) does the source give for `NC(=O)CC[C@H](NC(=O)[C@@H]1CC[C@@H]2CCN(C(=O)CCCCCC#Cc3cccc4c3CN(C3CCC(=O)NC3=O)C4=O)C[C@H](NC(=O)c3cc4cc(C(F)(F)P(=O)(O)O)ccc4s3)C(=O)N21)c1ncc(-c2ccccc2)s1` (stereo partly drawn) [Cpd. No. 2, ((2-(((5S,8S,10aR)-8-(((S)-4-amino-4-oxo-1-(5-phenylthiazol-2-yl)butyl)carbamoyl)-3-(8-(2-(2,6-dioxopiperidin-3-yl)-1-oxoisoindolin-4-yl)oct-7-ynoyl)-6-oxodecahydropyrrolo[1,2-a][1,5]diazocin-5-yl)carbamoyl)benzo[b]thiophen-5-yl)difluoromethyl)phosphonic acid] here?
A: The IC50 was 49 nM.

Q: And the DC50 (STAT1)?
A: Its DC50 is greater than 1000 nM.

Q: And the DC50 (STAT3)?
A: Its DC50 is 100 nM.

Q: `CCN1CC[C@H]2CC[C@@H](C(=O)N[C@@H](CCn3ccnc3)C(=O)N[C@@H](Cc3ccc(C(C)(C)C)cc3)C(=O)N3CCC(CCC#Cc4cccc5c4CN(C4CCC(=O)NC4=O)C5=O)CC3)N2C(=O)[C@@H](NC(=O)c2cc3cc(C(F)(F)P(=O)(O)O)ccc3s2)C1` (stereo partly drawn) [Cpd. No. 19] was tested. Which DC50 (STAT1) did it give?
A: Its DC50 is greater than 1000 nM.

Q: What about the DC50 (STAT3) of the same molecule?
A: Its DC50 is 250 nM.

Q: `COC(=O)N1CC[C@H]2CC[C@@H](C(=O)N[C@@H](CCCN)C(=O)N[C@@H](Cc3ccc(C(C)(C)C)cc3)C(=O)N3CCC(CCC#Cc4cccc5c4CN(C4CCC(=O)NC4=O)C5=O)CC3)N2C(=O)[C@@H](NC(=O)c2cc3cc(C(F)(F)P(=O)(O)O)ccc3s2)C1` (stereo partly drawn) [Cpd. No. 1, ((2-(((5S,8S,10aR)-8-(((2S)-5-amino-1-(((2S)-3-(4-(tert-butyl)phenyl)-1-(4-(4-(2-(2,6-dioxopiperidin-3-yl)-1-oxoisoindolin-4-yl)but-3-yn-1-yl)piperidin-1-yl)-1-oxopropan-2-yl)amino)-1-oxopentan-2-yl)carbamoyl)-3-(methoxycarbonyl)-6-oxodecahydropyrrolo[1,2-a][1,5]diazocin-5-yl)carbamoyl)benzo[b]thiophen-5-yl)difluoromethyl)phosphonic acid] was tested. Which DC50 (STAT1) did it give?
A: The DC50 was greater than 1000 nM.

Q: And the DC50 (STAT3)?
A: The DC50 was 1000 nM.
